Results reported in patent publication US20130078718A1, “CONVERSION OF VASCULAR ENDOTHELIAL CELLS INTO MULTIPOTENT STEM-LIKE CELLS” (PRESIDENT AND FELLOWS OF HARVARD COLLEGE, priority 2010, published 2013).
Entries after “also recorded” stand apart in the source; their conditions may differ.

T1: ALK2 with ALK5 (Homo sapiens, UniProt Q04771)
T1 construct: endogenous in cells; host or cells: HUVEC
T1 sequence (Q04771 21-509): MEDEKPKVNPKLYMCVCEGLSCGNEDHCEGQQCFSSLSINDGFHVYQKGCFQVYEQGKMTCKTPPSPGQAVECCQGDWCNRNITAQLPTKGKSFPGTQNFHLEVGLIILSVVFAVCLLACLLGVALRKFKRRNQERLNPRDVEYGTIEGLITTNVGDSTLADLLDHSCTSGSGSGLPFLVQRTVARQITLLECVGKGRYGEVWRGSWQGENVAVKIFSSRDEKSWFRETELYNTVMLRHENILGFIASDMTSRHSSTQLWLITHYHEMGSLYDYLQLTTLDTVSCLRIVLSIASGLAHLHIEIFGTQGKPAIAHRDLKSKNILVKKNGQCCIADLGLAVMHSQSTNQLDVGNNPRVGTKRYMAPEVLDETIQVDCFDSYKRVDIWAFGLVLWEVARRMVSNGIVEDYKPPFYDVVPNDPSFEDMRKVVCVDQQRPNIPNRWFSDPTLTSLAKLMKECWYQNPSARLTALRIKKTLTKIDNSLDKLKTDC

B1: BMP7: Recombinant BMP7 protein (R&D Systems), ALK2 activating ligand that inhibits EndMT (protein)
chain: STGSKQRSQNRSKTPKNQEALRMANVAENSSSDQRQACKKHELYVSFRDLGWQDWIIAPEGYAAYYCEGECAFPLNSYMNATNHAIVQTLVHFINPETVPKPCCAPTQLNAISVLYFDDSSNVILKKYRNMVVRACGCH

Columns and labels:
[1] = system: endothelial cells (HUVEC, HCMEC); assay: RNA interference: effect of ALK siRNA on TGF-β2- or BMP4-induced EndMT and multipotency; format: cell-based, human
Protocol: Cells were grown in StemPro osteogenic, chondrogenic, or adipogenic culture medium (Invitrogen). Alkaline phosphatase staining was performed using the alkaline phosphatase kit and protocol (Sigma-Aldrich) on cultures grown in osteogenic medium for 7 days to detect osteoblasts. Alizarin Red (Sigma-Aldrich) staining was performed for 30 minutes on cultures grown in osteogenic medium for 21 days to detect matrix calcification. Alcian Blue (Sigma) staining was used to stain chondrocyte proteoglycans for 5 minutes in cultures grown in chondrogenic medium for 14 days. Oil Red O (Sigma-Aldrich) staining was performed for 15 minutes on cultures grown in adipogenic medium for 7 days.
(§1) siRNA gene expression knockdown studies were performed using the TriFECTa RNAi kit (Integrated DNA Technologies) and corresponding protocol. Each 27 mer siRNA duplex was transfected into cells using X-tremeGene siRNA transfection reagent (Roche) following the manufacturer's guidelines. siRNA was synthesized (Integrated DNA Technologies) with the following sequences: ALK2: 5′-[…]-3′ (SEQ ID NO: 51); negative control: 5′-[…]-3′ (SEQ ID NO: 52).
Cells were grown in StemPro osteogenic, chondrogenic, or adipogenic culture medium (Invitrogen). Alkaline phosphatase staining was performed using the alkaline phosphatase kit and protocol (Sigma-Aldrich) on cultures grown in osteogenic medium for 7 d to detect osteoblasts. Alizarin Red (Sigma-Aldrich) staining was performed for 30 min on cultures grown in osteogenic medium for 21 d to detect matrix calcification. Alcian Blue (Sigma) staining was used to stain chondrocyte proteoglycans for 5 minutes in cultures grown in chondrogenic medium for 14 d. Oil Red O (Sigma-Aldrich) staining was performed for 15 min on cultures grown in adipogenic medium for 7 d. For in vivo analysis, endothelial cells were labeled with fluorescent quantum dots using the Qtracker 525 Cell Labeling Kit (Invitrogen). Cells were treated in culture to induce EndMT then absorbed into OPLA polylactic acid scaffolds (BD Biosciences). Scaffolds were surgically implanted subcutaneously into immunodeficient nude mice (Nu/Nu strain; Charles River Laboratories). Local injection of StemPro differentiation medium (described above) was performed in the area of the implants every 72 h for 6 weeks. Scaffolds were cryosectioned and stained with Alizarin Red, Alcian Blue, or Oil Red O as described above. All procedures were reviewed and approved by the Institutional Animal Care and Use Committee at Harvard Medical School.
(§2) siRNA gene expression knockdown studies were performed using the TriFECTa RNAi kit (Integrated DNA Technologies) and corresponding protocol. Each 27 mer siRNA duplex was transfected into cells using X-tremeGene siRNA transfection reagent (Roche) following the manufacturer's guidelines. siRNA was synthesized (Integrated DNA Technologies) with the following sequences: […]

ALK2 = assay: siRNA knockdown of ALK2 expression (immunoblotting); format: cell-based, human; settings: transfected for 24 hours
Protocol: as §1, §2

EndMT = settings: references 30, 31; cited from earlier work
HUVECs = assay: Assessment of EndMT inhibitors (immunoblotting); format: cell-based, human; settings: dorsomorphin 5 μM, BMP7 10 ng ml−1, VEGF 25 ng ml−1; for TGF-β2-induced changes in CD31, FSP-1 and CD44 expression (immunoblots): HUVECs
Protocol: Human umbilical vein endothelial cells (HUVEC) and human cutaneous microvascular endothelial cells (HCMEC) isolated as previously described (35). Cells were tested for purity and found to express no markers for lymphatic endothelial cells or stromal cells (pericytes, smooth muscle cells, etc.) (36). This was reconfirmed by flow cytometry analysis (data not shown). Clonal populations were isolated with PYREX 8×8 mm cloning cylinders (Corning) and shown to respond in a manner identical to that of the cultures used for our experiments (FIG. 25B-D). Cells were grown in culture using EGM-2 medium (Cambrex), containing 10% FBS and 1% Penicillin/Streptomycin, followed by human endothelial serum free medium (Gibco) 24 h prior to all experimental conditions. Bone marrow derived mesenchymal stem cells (ScienCell Research Laboratories) were grown in mesenchymal stem cell medium (ScienCell Research Laboratories). Bone marrow derived hematopoietic stem cells (Lonza) were grown in HPGM medium (Lonza). Human corneal fibroblasts, from a stock provided by Dr. Elizabeth Hay (Harvard Medical School), were grown in RPMI medium, containing 10% FBS and 1% Penicillin/Streptomycin. Primary human osteoblasts, chondrocytes, and adipocytes and their respective growth media were obtained from Cell Applications, Inc. […] Recombinant VEGF (R&D Systems) was added to cultures at a concentration of 25 ng ml^-1. Dorsomorphin (Sigma-Aldrich) was added to cultures at a concentration of 5 μM. All experiments for this study were performed at minimum in triplicate. Immunoassays were performed using the following antibodies at concentrations (and using protocols) recommended by the respective manufacturers: […] Stressgen), phospho-Smad2 (3101), Smad2 (3122), phospho-Smad5 (9516), Smad5 (9517; […] Santa Cruz Biotechnology), osterix (ab22552), adiponectin (ab22554), N-cadherin (ab76057), NG2 (ab83508), vWF (ab68545; Abcam); CD31 (IR610; Dako), […]; GenScript); α-SMA ([…]), β-actin (A1978; Sigma-Aldrich). Samples were run with Criterion precast SDS-PAGE Gels (Bio-Rad). […] TrueBlot IgG beads (eBioscience) were used for immunoprecipitation experiments. AlexaFluor secondary antibodies (Invitrogen) were used at a dilution of 1:200. Images were acquired using a Nikon 80i fluorescence microscope.

ALK2 with ALK5 = target: T1, ALK2 with ALK5; assay: Interaction of ALK2 with ALK5: immunoprecipitation of ALK2, immunoblotting for ALK5; format: cell-based; settings: 10 ng ml−1, 15 min
Protocol: Human umbilical vein endothelial cells (HUVEC) and human cutaneous microvascular endothelial cells (HCMEC) isolated as previously described (35). Cells were tested for purity and found to express no markers for lymphatic endothelial cells or stromal cells (pericytes, smooth muscle cells, etc.) (36). This was reconfirmed by flow cytometry analysis (data not shown). Clonal populations were isolated with PYREX 8×8 mm cloning cylinders (Corning) and shown to respond in a manner identical to that of the cultures used for our experiments (FIG. 25B-D). Cells were grown in culture using EGM-2 medium (Cambrex), containing 10% FBS and 1% Penicillin/Streptomycin, followed by human endothelial serum free medium (Gibco) 24 h prior to all experimental conditions. Bone marrow derived mesenchymal stem cells (ScienCell Research Laboratories) were grown in mesenchymal stem cell medium (ScienCell Research Laboratories). Bone marrow derived hematopoietic stem cells (Lonza) were grown in HPGM medium (Lonza). Human corneal fibroblasts, from a stock provided by Dr. Elizabeth Hay (Harvard Medical School), were grown in RPMI medium, containing 10% FBS and 1% Penicillin/Streptomycin. Primary human osteoblasts, chondrocytes, and adipocytes and their respective growth media were obtained from Cell Applications, Inc. […] Recombinant VEGF (R&D Systems) was added to cultures at a concentration of 25 ng ml^-1. Dorsomorphin (Sigma-Aldrich) was added to cultures at a concentration of 5 μM. All experiments for this study were performed at minimum in triplicate. Immunoassays were performed using the following antibodies at concentrations (and using protocols) recommended by the respective manufacturers: […] Stressgen), phospho-Smad2 (3101), Smad2 (3122), phospho-Smad5 (9516), Smad5 (9517; […] Santa Cruz Biotechnology), osterix (ab22552), adiponectin (ab22554), N-cadherin (ab76057), NG2 (ab83508), vWF (ab68545; Abcam); CD31 (IR610; Dako), […]; GenScript); α-SMA ([…]), β-actin (A1978; Sigma-Aldrich). […] Images were acquired using a Nikon 80i fluorescence microscope.

Smad2 and Smad5 = assay: Smad phosphorylation by immunoblotting; format: cell-based, human; settings: HUVECs, 10 ng ml−1, 1 h
Protocol: Human umbilical vein endothelial cells (HUVEC) and human cutaneous microvascular endothelial cells (HCMEC) were provided by J. Bischoff (Children's Hospital Boston) and isolated as previously described^35. […] Cells were grown in culture using EGM-2 medium (Cambrex), containing 10% FBS and 1% Penicillin/Streptomycin, followed by human endothelial serum free medium (Gibco) 24 hours prior to all experimental conditions. Bone marrow derived mesenchymal stem cells (ScienCell Research Laboratories) were grown in mesenchymal stem cell medium (ScienCell Research Laboratories). Human corneal fibroblasts, from a stock initially provided by E. Hay (Harvard Medical School), were grown in RPMI medium, containing 10% FBS and 1% Penicillin/Streptomycin. Primary human osteoblasts, chondrocytes, and adipocytes and their respective growth media were obtained from Cell Applications Inc. Recombinant TGF-β2 and BMP4 proteins (R&D Systems) were added to the serum free culture medium for all relevant experiments at a concentration of 10 ng/mL. Cells were treated for 15 minutes to assess ALK2 phosphorylation, 1 hour to measure Smad5 phosphorylation, or 48 hours to induce EndMT. All experiments for this study were performed at minimum in triplicate.
Immunoassays were performed using the following antibodies at concentrations (and using protocols) recommended by the respective manufacturers: FSP-1 (H00006275-M01; Stressgen), ALK2 (sc-5671), Phospho-tyrosine (sc-7020), VE-cadherin (sc-6458), TIE2 (sc-324, sc-9026), STRO-1 (sc-47733), CD44 (sc-71220), CD90 (sc-9163), Osteocalcin (sc-74495, sc-23790), SOX9 (sc-20095), COL2A1 (sc-59958, sc-52658), PPARγ2 (sc-22022; Santa Cruz Biotechnology), vWF (ab68545; Abcam); His (A00174; GenScript); α-SMA (A5228), β-actin (A1978; Sigma-Aldrich). Samples were run with Criterion precast SDS-PAGE Gels (Bio-Rad). HRP-conjugated IgG TrueBlot reagents (18-8814, 18-8816, 18-8817; eBioscience) were used at a dilution of 1:1000. TrueBlot IgG beads (eBioscience) were used for immunoprecipitation experiments. Alexa Fluor secondary antibodies (Invitrogen) were used at a dilution of 1:200. Images were acquired using a Nikon 80i fluorescence microscope.
Human umbilical vein endothelial cells (HUVEC) and human cutaneous microvascular endothelial cells (HCMEC) isolated as previously described (35). […] Cells were grown in culture using EGM-2 medium (Cambrex), containing 10% FBS and 1% Penicillin/Streptomycin, followed by human endothelial serum free medium (Gibco) 24 h prior to all experimental conditions. Bone marrow derived mesenchymal stem cells (ScienCell Research Laboratories) were grown in mesenchymal stem cell medium (ScienCell Research Laboratories). Bone marrow derived hematopoietic stem cells (Lonza) were grown in HPGM medium (Lonza). Human corneal fibroblasts, from a stock provided by Dr. Elizabeth Hay (Harvard Medical School), were grown in RPMI medium, containing 10% FBS and 1% Penicillin/Streptomycin. Primary human osteoblasts, chondrocytes, and adipocytes and their respective growth media were obtained from Cell Applications, Inc. Recombinant TGF-β2, BMP4, and BMP7 proteins (R&D Systems) were added to the serum free culture medium for all relevant experiments at a concentration of 10 ng ml^−1. Recombinant VEGF (R&D Systems) was added to cultures at a concentration of 25 ng ml^−1. Dorsomorphin (Sigma-Aldrich) was added to cultures at a concentration of 5 μM.

[2] = siRNA 24 hours, then TGF-β2 or BMP4 48 hours
[3] = siRNA transfected, osteogenic medium 7 days

Row | Molecule | TGF-β2- or BMP4-induced decrease in VE-cadherin and increase in CD44 expression (ELISA) ([1]; HUVECs, ALK-specific siRNA) | TGF-β2- or BMP4-induced increases in FSP-1 and STRO-1 expression (immunoblotting) ([1]; siRNA 24 h, then TGF-β2 or BMP4 48 h) | TGF-β2- or BMP4-induced STRO-1 expression (immunoblotting) [1, 2] | TGF-β2- or BMP4-induced increase in FSP-1 expression (immunoblotting) [1, 2] | cells expressing FSP-1 after TGF-β2 or BMP4 (flow cytometry) [1, 2] | TGF-β2- or BMP4-induced increases in osteocalcin and osterix expression (real-time quantitative PCR) [1, 3] | alkaline phosphatase staining of TGF-β2 or BMP4 treated cultures [1, 3] | ALK2 expression (immunoblotting) (ALK2) | effect on EndMT (EndMT) | TGF-β2-induced changes in CD31, FSP-1 and CD44 expression (immunoblots) (HUVECs) | effect on EndMT (inhibitor) (HUVECs) | ALK5 in ALK2 immunoprecipitates (ALK2 with ALK5) | phosphorylation of Smad2 and Smad5 (immunoblotting) (Smad2 and Smad5)
1 | ALK2 siRNA: 27 mer siRNA duplex 5'-GCAACACUGUCCAUUCUUCUUAACCAG-3′ (SEQ ID NO: 51/56) (chemistry not fully specified) | inhibited | blocked these increases | prevented TGF-β2- or BMP4-induced increases | completely blocked these increases | very few cells expressing FSP-1 | prevented these increases | no positive staining and none | complete inhibition | – | – | – | – | –
2 | VEGF | – | – | – | – | – | – | – | – | inhibit EndMT | inhibition of TGF-β2-induced decreases in CD31 and increases in FSP-1 and CD44 expression | inhibitors of EndMT | – | –
3 | B1 | – | – | – | – | – | – | – | – | – | inhibition of TGF-β2-induced decreases in CD31 and increases in FSP-1 and CD44 expression | inhibits EndMT; also recorded: inhibitors of EndMT | No interaction of ALK2 and ALK5 | stimulated phosphorylation of only Smad5
